One data set has as its system MDCK-mdr1 cells. In words: Bidirectional MDCK-MDR1 permeability assay. The class given is in vitro ADME. On the procedure:
Permeability Assessment. Bidirectional MDCK-MDR1 permeability assay was performed by Paraza Pharma Inc. (Montreal, Canada). MDCK-mdr1 cells at passage 5 were seeded onto permeable polycarbonate supports in 12-well Costar Transwell plates and allowed to grow and differentiate for 3 days. On day 3, culture medium (DMEM supplemented with 10% FBS) was removed from both sides of the transwell inserts and cells were rinsed with warm HBSS. After the rinse step, the chambers were filled with warm transport buffer (HBSS containing 10 mM HEPES, 0.25% BSA, pH 7.4) and the plates were incubated at 37° C. for 30 min prior to TEER (Trans Epithelial Electric Resistance) measurements.
The buffer in the donor chamber (apical side for A-to-B assay, basolateral side for B-to-A assay) was removed and replaced with the working solution (10 μM test article in transport buffer). The plates were then placed at 37° C. under light agitation. At designated time points (30, 60 and 90 min), an aliquot of transport buffer from the receiver chamber was removed and replenished with fresh transport buffer. Samples were quenched with ice-cold ACN containing internal standard and then centrifuged to pellet protein. Resulting supernatants are further diluted with 50/50 ACN/H2O (H2O only for Atenolol) and submitted for LC-MS/MS analysis. Reported apparent permeability (Papp) values were calculated from single determination. Atenolol and propranolol were tested as low and moderate permeability references.
The apparent permeability (Papp, measured in cm/s) of a compound is determined according to the following formula from two independent experiments in duplicate: […]
where dQ/dt is the net rate of appearance in the receiver compartment; A is the area of the Transwell measured in cm^2 (1.12 cm^2); Ci is the initial concentration of compound added to the donor chamber; and 60 is the conversion factor for minute to second.

The test system of data set [1] is rats. The data set can be described thus: Locomotion in rats. The class given is in vivo, rat. The note with it: 5.6 mg/kg i.p.
In data set [2] the target is T1, Human CB1 (Homo sapiens (Human), UniProt P21554). In words: Calcium mobilization assay (antagonist mode vs CP55,940). Format: cell-based. The conditions noted are these: CHO-RD-HGA16 cells stably expressing human CB1; against EC50 concentration of CP55,940; mean ± SEM, at least three experiments. On the procedure: Calcium Mobilization Assay: CHO-RD-HGA16 cells (Molecular Devices, San Jose, California, United States of America) stably expressing the human CB1 receptor were plated into 96-well black-walled assay plates at 25,000 cells/well in 100 μL of Ham's F12 (supplemented with 10% fetal bovine serum, 100 units of penicillin/streptomycin, and 100 μg/mL Normocin) and incubated overnight at 37° C., 5% CO2. Calcium 5 dye (Molecular Devices, San Jose, California, United States of America) was reconstituted according to the manufacturer's instructions. The reconstituted dye was diluted 1:40 in prewarmed (37° C.) assay buffer (lx HBSS, 20 mM HEPES, 2.5 mM probenecid, pH 7.4 at 37° C.). Growth medium was removed, and the cells were gently washed with 100 μL of prewarmed (37° C.) assay buffer. […] After the pretreatment incubation period, the plate was read with a FLIPR Tetra (Molecular Devices, San Jose, California, United States of America). […] Relative fluorescence units (RFU) were plotted against the log of compound concentrations. […] Test compound RFUs were compared to the CP55,940 Emax RFUs to generate % Emax values. For the CB2 agonist and antagonist assays, the same procedures were followed except that stable human CB2—CHO-RD-HGA16 cells were used.
T1 sequence (P21554 whole entry): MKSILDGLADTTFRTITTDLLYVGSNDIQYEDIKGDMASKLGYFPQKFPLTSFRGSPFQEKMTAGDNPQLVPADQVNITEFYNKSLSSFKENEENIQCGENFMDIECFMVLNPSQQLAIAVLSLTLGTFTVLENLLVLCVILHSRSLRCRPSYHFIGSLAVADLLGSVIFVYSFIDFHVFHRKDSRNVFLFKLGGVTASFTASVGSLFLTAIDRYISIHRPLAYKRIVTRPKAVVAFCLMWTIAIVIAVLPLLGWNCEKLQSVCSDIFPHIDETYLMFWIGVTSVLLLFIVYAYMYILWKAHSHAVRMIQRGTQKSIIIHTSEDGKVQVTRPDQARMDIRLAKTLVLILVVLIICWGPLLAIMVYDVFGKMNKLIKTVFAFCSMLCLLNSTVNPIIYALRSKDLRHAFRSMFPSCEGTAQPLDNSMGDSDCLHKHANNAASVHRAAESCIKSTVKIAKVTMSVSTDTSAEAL
(§1) Data Analysis: For calcium mobilization experiments, data were fit to a three-parameter logistic curve to generate IC50 values (GraphPad Prism 6.0, Graphpad Software, San Diego, California, United States of America). For [^35S]GTPγS experiments, data were normalized to maximal CP55,940 (100 nM) stimulation in the absence of test compound (i.e., vehicle=100%).
On the technique in general: Calcium assays in cells follow changes in intracellular calcium, usually with a dye or a luminescent sensor.

Data set [3] in a line: Kinetic solubility assessment. Format: physicochemical. The note with it: phosphate buffer solution, 2 hours at room temperature, target 400 μM. The protocol:
The solution was agitated on a VX-2500 multi-tube vortexer (VWR International, Radnor, Pennsylvania, United States of America) for 2 hours at room temperature. Following agitation, the sample was filtrated on a glass-fiber filter (1 μm) and the eluate was diluted 400-fold with a mixture of acetonitrile: water (1:1). On each experimental occasion, nicardipine and imipramine were assessed as reference compounds for low and high solubility, respectively. All samples were assessed in triplicate and analyzed by LC-MS/MS using electrospray ionization against standards prepared in the same matrix.

A short description of data set [4]: Metabolic stability in rat liver microsomes. Format: in vitro ADME. The note with it: for microsomal CLint / half-life: pH 7.4, 0.5 mg/mL protein; for microsomal CLint: read-out: Rat Liver microsome Clearance; for half-life: read-out: Rat Liver microsome T1/2. On the procedure:
Metabolic stability assessment: Compounds were incubated with rat liver microsomes at 37° C. for a total of 45 minutes. The reaction was performed at pH 7.4 in 100 mM potassium phosphate buffer containing 0.5 mg/mL of rat liver microsomal protein. Phase I metabolism was assessed by adding NADPH to a final concentration of 1 mM and collecting samples at time points 0, 5, 15, 30 and 45 minutes. All collected samples were quenched 1:1 with ice-cold stop solution (1 μM labetalol and 1 μM glyburide in acetonitrile) and centrifuged to remove precipitated protein. Resulting supernatants were further diluted 1:4 with acetonitrile:water (1:1). Samples were analyzed by LC/MS/MS and calculations for half-life, and in-vitro clearance were accomplished using Microsoft Excel (2007).
In general terms: Microsomes from liver hold many membrane-bound enzymes, among them those of drug oxidation.

A further data set in a line: Plasma protein binding. Format: in vitro ADME.
The target of data set [5] is T1, Human CB1. In words: Human CB1 HEK293 membrane [35S]GTPγS binding assay. Format: biochemical. The note with it: HEK293 membranes expressing human CB1, in presence of CP55,940, mean ± SEM; for IC50: read-out: Human CB1 HEK293 membrane [35S]GTPγS binding assay pIC50 ± SEM (converted). On the procedure:
Non-specific binding was determined by adding 30 μM unlabeled GTPγS.
as §1
On the technique in general: GTPγS resists hydrolysis and so accumulates on activated G proteins.

Another data set addresses Mouse CB1 (Mus musculus (Mouse), UniProt P47746). In words: Mouse CB1 [35S]GTPγS binding assay (ICR mouse cerebellum membranes). The class given is biochemical. The conditions noted are these: in presence of CP55,940, mean ± SEM. The protocol: [^35S]GTPγS Binding Assay: For receptor signaling, membranes (10 μg protein) from either ICR mouse cerebellum mice (6-8 weeks old; Enviga International, Indianapolis, Indiana, United States of America) or HEK cells stably expressing CB1 receptor were preincubated in assay buffer for 10 min with 3 units/ml adenosine deaminase then incubated for 60 min at 30° C. with 30 μM GDP and 0.1 nM [^35S]GTPγS (Perkin Elmer Life Sciences, Boston, Massachusetts, United States of America). Non-specific binding was determined by adding 30 μM unlabeled GTPγS.
as §1

For data set [6], the system named is rats. The conditions noted are these: cited from earlier work.
The conditions of data set [7]: in vivo; cited from earlier work.
For data set [8], the system named is rats. The note with it: 10 mg/kg; cited from earlier work.

Chain of Mouse CB1 (P47746 whole entry): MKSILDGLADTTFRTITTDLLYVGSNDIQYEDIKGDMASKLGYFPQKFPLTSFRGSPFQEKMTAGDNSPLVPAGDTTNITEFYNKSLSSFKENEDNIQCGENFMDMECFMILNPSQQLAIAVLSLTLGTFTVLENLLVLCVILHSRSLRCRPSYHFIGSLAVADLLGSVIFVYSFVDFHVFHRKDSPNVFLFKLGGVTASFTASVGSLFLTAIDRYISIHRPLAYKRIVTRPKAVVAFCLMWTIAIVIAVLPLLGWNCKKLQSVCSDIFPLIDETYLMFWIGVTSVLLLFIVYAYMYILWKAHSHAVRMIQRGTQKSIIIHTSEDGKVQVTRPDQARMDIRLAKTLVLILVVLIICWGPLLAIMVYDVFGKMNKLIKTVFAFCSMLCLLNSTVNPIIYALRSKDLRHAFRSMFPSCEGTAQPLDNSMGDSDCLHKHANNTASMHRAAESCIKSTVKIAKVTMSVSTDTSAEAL

A word on the solubility (kinetic): it is solubility judged after dilution from a stock solution rather than from solid. Regarding `O=c1c(NCCc2cccc(Cl)c2)c(Nc2ccc(Cl)cc2)c1=O` [Compound 7, 3-[(4-Chlorophenyl)amino]-4-{[2-(3-chlorophenyl)ethyl]amino}cyclobut-3-ene-1,2-dione], the “Efflux ratio BA/AB” value with MDCK-mdr1 cells (MDCK-MDR1) was determined as 2.1. Moreover, in the data set on MDCK-mdr1 cells (MDCK-MDR1, 10 μM, apical to basolateral), the “Papp A to B (x10^-6 cm/s)” value was 3.1 x10^-6 cm/s. For the same compound, the “Papp B to A (x10^-6 cm/s)” value in the data set on MDCK-mdr1 cells (MDCK-MDR1, 10 μM, basolateral to apical) is listed as 6.4 x10^-6 cm/s. For the same compound, the Effect on locomotion entry with rats [1] was “without affecting locomotion”. In addition, in the data set on rats [1] (listed as Compound 6), the Effect on locomotion result was “did not affect locomotion”. Moreover, the IC50 on Human CB1 [2] came out at 130 ± 12 nM. In [3], this compound yielded a kinetic solubility at 2 h of less than 1 µM. In [4] (NADPH, 37° C.), the microsomal CLint turned out to be 34.7 µL/min/mg and the half-life stood at 40 min. Besides, in data set [4] (versus PSNCBAM-1), the “Metabolic stability in rat liver microsomes compared with PSNCBAM-1” value is “better metabolic stability”. Also, the “% Plasma Protein Bound” value in the data set “Plasma protein binding” is recorded as greater than 99.74%.
In the case of `O=c1c(NCCc2ccccc2)c(Nc2ccc(Cl)cc2)c1=O` [Compound 11, 3-[(4-Chlorophenyl)amino]-4-[(2-phenylethyl)amino]cyclobut-3-ene-1,2-dione], the IC50 on Human CB1 [5] was 776 nM; at Human CB1 [2], 210 ± 39 nM.
Consider `N#Cc1ccc(Nc2c(NCCc3cccc(Cl)c3)c(=O)c2=O)cc1` [Compound 28, 4-[(2-{[2-(3-Chlorophenyl)ethyl]amino}-3,4-dioxocyclobut-1-en-1-yl)amino]benzonitrile], for which the IC50 at Human CB1 [5] is 398 nM; at Human CB1 [2], 460 ± 66 nM.
As to `O=c1c(Nc2ccc(Cl)cc2)c(Nc2cccc(-c3ccc(F)cc3)c2)c1=O` [Compound 33, 3-[(4-Chlorophenyl)amino]-4-[(4′-fluorobiphenyl-3-yl)amino]cyclobut-3-ene-1,2-dione], the IC50 at Human CB1 [5] was 501 nM; at Human CB1 [2], 575 ± 100 nM; on Mouse CB1 (read-out: Mouse CB1 [35S]GTPγS binding assay pIC50 ± SEM (converted)) it was 110 nM. In data set [3] (aqueous buffer, kinetic from dmso stock), this compound returned a solubility (kinetic) at 2 h of less than 1 µM. Besides, the microsomal CLint in [4] (NADPH, 37° C.) came to 59.6 µL/min/mg. Besides, the half-life in data set [4] (NADPH, 37° C.) was 23.7 min. In addition, in the data set “Plasma protein binding”, the “% Plasma Protein Bound” value came out at 99%.
`CC(=O)c1ccc(CCNc2c(Nc3ccc(Cl)cc3)c(=O)c2=O)cc1` [Compound 40, 3-{[2-(A-acetylphenyl)ethyl]amino}-4-[(4-chlorophenyl)amino]cyclobut-3-ene-1,2-dione]: at Human CB1 [5], the “Human CB1 HEK293 membrane [35S]GTPγS binding assay pIC50 ± SEM” value was 6.77 ± 0.04. Besides, the IC50 at Human CB1 [2] worked out at 350 ± 10 nM. Also, at Mouse CB1, the “Mouse CB1 [35S]GTPγS binding assay pIC50 ± SEM” value is given as 6.70 ± 0.09.
Taken in the same sequence, the figures for `O=c1c(NCCc2ccc(F)cc2F)c(Nc2ccc(Cl)cc2)c1=O` [Compound 47, 3-[(4-Chlorophenyl)amino]-4-{[2-(2,4-difluorophenyl)ethyl]amino}cyclobut-3-ene-1,2-dione] were 6.84 ± 0.08, 362 ± 30 nM and 6.61 ± 0.19.
Take `O=C(Nc1ccc(Cl)cc1)Nc1cccc(-c2cccc(N3CCCC3)n2)c1` [PSNCBAM-1, reference compound]: in [4] (0.5 mg/mL protein, NADPH, 37° C.), the “Rat Liver microsome T1/2” value is listed as 13 min. For the same compound, the “Food intake and body weight in rats” value in the data set with rats [6] is “reduces food intake and body weight”.
With `N#Cc1ccc(NC(=O)Nc2cccc(-c3cccc(N4CCCC4)n3)c2)cc1` [RTICBM-28], the “THC's potency in drug discrimination” value in [7] is “reduces THC's potency in drug discrimination”.
Turning to `O=C(NCCc1cccc(Cl)c1)Nc1ccc(Cl)cc1` [RTICBM-189], the “Drug-induced reinstatement of cocaine seeking in rats” value in the data set with rats [8] was “attenuates drug-induced restatement of cocaine seeking”.

These data come from US20260062376A1, “SQUARAMIDE DERIVATIVES AS CB1 ALLOSTERIC MODULATORS” (RESEARCH TRIANGLE INSTITUTE, priority 2022, published 2026).
